From patent publication US6855730B2, “3-methylidenyl-2-indolinone modulators of protein kinase” (Sugen, Inc., priority 1998, dated 2005)

target: T1, PDGFR-β (Homo sapiens, UniProt P09619); assay: Biochemical PDGFR assay (ELISA, PDGFR-β expressing NIH 3T3 cell lysate); details: read-out: bio PDGF IC50
T1 construct: host or cells: NIH 3T3
Procedure, shortened: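 Phosphorylation was read by ELISA (anti-phosphotyrosine serum, peroxidase secondary, ABTS at 410 nm) after a 30 min room-temperature reaction with 20 μM ATP, EDTA-stopped. Kinase was lysate-derived PDGFR-β (NIH 3T3) immobilised via 28D4C10 antibody, compound added 30 min before ATP.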

T1 sequence (P09619 33-1106): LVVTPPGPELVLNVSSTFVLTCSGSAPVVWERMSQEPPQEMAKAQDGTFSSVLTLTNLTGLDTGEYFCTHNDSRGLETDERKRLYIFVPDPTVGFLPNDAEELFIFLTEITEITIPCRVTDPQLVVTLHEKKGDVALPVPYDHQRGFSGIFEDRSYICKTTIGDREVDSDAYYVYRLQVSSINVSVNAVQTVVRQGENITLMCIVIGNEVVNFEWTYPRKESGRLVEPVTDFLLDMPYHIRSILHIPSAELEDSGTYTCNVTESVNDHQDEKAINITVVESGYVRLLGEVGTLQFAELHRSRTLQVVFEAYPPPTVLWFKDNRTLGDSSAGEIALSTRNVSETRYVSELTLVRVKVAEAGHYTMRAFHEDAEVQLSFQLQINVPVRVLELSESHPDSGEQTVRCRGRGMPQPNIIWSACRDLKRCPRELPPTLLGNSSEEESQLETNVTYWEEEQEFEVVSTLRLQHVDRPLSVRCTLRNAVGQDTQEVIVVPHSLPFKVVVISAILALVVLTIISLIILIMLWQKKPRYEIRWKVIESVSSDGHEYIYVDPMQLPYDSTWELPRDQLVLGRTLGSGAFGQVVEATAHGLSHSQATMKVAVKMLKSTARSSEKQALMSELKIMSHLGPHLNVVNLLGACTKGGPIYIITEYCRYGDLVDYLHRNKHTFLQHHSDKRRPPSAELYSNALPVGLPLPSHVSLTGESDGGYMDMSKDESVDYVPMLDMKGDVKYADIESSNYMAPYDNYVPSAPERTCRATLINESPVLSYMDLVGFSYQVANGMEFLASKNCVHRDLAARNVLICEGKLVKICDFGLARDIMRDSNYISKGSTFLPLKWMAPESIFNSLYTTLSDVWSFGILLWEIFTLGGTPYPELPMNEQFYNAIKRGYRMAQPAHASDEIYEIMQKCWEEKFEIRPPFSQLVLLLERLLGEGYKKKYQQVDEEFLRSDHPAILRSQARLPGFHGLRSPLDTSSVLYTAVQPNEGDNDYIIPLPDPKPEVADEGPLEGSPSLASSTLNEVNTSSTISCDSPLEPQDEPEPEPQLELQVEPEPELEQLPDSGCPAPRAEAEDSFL

Row | IC50 | SMILES
1 | 2380 nM | CCOc1cccc(-c2ccc3c(c2)NC(=O)/C3=C\c2[nH]cc(C)c2CCC(=O)O)c1 [Example 224, 3-{2-[6-(3-Ethoxyphenyl)-2-oxo-1,2-dihydro-indol-3-ylidenemethyl]-4-methyl-1H-pyrrol-3-yl}-propionic acid]
2 | > 100000 nM | Nc1ccc2c(c1)/C(=C/c1ccc3[nH]ccc3c1)C(=O)N2 [Example 179, 5-Amino-3-(1H-indol-5-ylmethylene)-1,3-dihydro-indol-2-one]
3 | 11800 nM | O=C1Nc2ccccc2/C1=C/c1[nH]c2c(c1CCC(=O)N1CCOCC1)CCCC2 [Example 200, 3-[3-(3-Morpholin-4-yl-3-oxopropyl)-4,5,6,7-tetrahydro-1H-indol-2-ylmethylene]-1,3-dihydroindol-2-one]
4 | 890 nM | NC(=O)CCc1c(/C=C2\C(=O)Nc3ccccc32)[nH]c2c1CCCC2 [Example 199, 3-[2-(2-Oxo-1,2-dihydroindol-3-ylidenemethyl)-4,5,6,7-tetrahydro-1H-indol-3-yl]-propionamide]
5 | > 100000 nM | O=C(O)CCc1ccccc1/C=C1/C(=O)Nc2ccccc21 [Example 214, 3-[2-(2-Oxo-1,2-dihydroindol-3-ylidenemethyl)-phenyl]-propionic acid]
6 | > 100000 nM | Cc1[nH]c2ccccc2c1/C=C1\C(=O)Nc2ccc(N)cc21 [Example 187, 5-Amino-3-(2-methyl-1H-indol-3-ylmethylene)-1,3-dihydroindol-2-one]
7 | 2500 nM | O=C1Nc2ccc(C(=O)O)cc2/C1=C/c1c[nH]c2ccccc12 [Example 174, 3-(1H-Indol-3-ylmethylene)-2-oxo-2,3-dihydro-1H-indole-5-carboxylic acid]
8 | 3750 nM | COc1ccc2c(c1)/C(=C/c1[nH]cc(C)c1CCC(=O)O)C(=O)N2 [Example 222, 3-[2-(5-Methoxy-2-oxo-1,2-dihydroindol-3-ylidenemethyl)-4-methyl-1H-pyrrol-3-yl]-propionic acid]
9 | 150 nM | O=C(O)CCc1c(/C=C2\C(=O)Nc3ncccc32)[nH]c2c1CCCC2 [Example 203, 3-[2-(2-Oxo-1,2-dihydropyrrolo[2,3-b]pyridin-3-ylidenemethyl)-4,5,6,7-tetrahydro-1H-indol-3-yl]-propionic acid]
10 | 40 nM | CN(C)CCCc1c(/C=C2\C(=O)Nc3ccccc32)[nH]c2c1CCCC2 [Example 198, 3-[3-(3-Dimethylaminopropyl)-4,5,6,7-tetrahydro-1H-indol-2-ylmethylene]-1,3-dihydroindol-2-one]
11 | 44600 nM | Cc1cccc2c1/C(=C/c1[nH]c3c(c1CCC(=O)O)CCCC3)C(=O)N2 [Example 193, 3-[2-(4-Methyl-2-oxo-1,2-dihydroindol-3-ylidenemethyl)-4,5,6,7-tetrahydro-1H-indol-3-yl]-propionic acid]
12 | 781 nM | COc1cccc(-c2ccc3c(c2)NC(=O)/C3=C\c2[nH]cc(C)c2CCC(=O)O)c1 [Example 223, 3-{2-[6-(3-Methoxyphenyl)-2-oxo-1,2-dihydro-indol-3-ylidenemethyl]-4-methyl-1H-pyrrol-3-yl}-propionic acid]
13 | 20 nM | Cc1cc(CCC(=O)O)c(/C=C2\C(=O)Nc3ccc(Br)cc32)[nH]1 [Compound 116, 3-[2-(5-Bromo-2-oxo-1,2-dihydroindol-3-ylidenemethyl)-5-methyl-1H-pyrrol-3-yl]-propionic acid]
14 | 2040 nM | O=C(O)CCc1c(/C=C2\C(=O)Nc3cc(Cl)ccc32)[nH]c2c1CCCC2 [Example 195, 3-[2-(6-Chloro-2-oxo-1,2-dihydroindol-3-ylidenemethyl)-4,5,6,7-tetrahydro-1H-indol-3-yl]-propionic acid]
15 | 23400 nM | CC(C)NS(=O)(=O)c1ccc2c(c1)C(=Cc1[nH]c3c(c1CCC(=O)O)CCCC3)C(=O)N2 [Example 208, 3-[2-(5-Isopropylaminosulfonyl-2-oxo-1,2-dihydroindol-3-ylidenemethyl)-4,5,6,7-tetrahydro-1H-indol-3-yl]-propionic acid]
16 | > 100000 nM | COc1c(C(C)C)cc(/C=C2/C(=O)Nc3ccc(Cl)cc32)cc1C(C)C [Example 2, 5-Chloro-3-(3,5-diisopropyl-4-methoxybenzylidene)-1,3-dihydroindol-2-one]

Row | IC50 | SMILES
17 | 220 nM | Cc1c[nH]c(/C=C2\C(=O)Nc3ccc(Cl)cc32)c1CCC(=O)O [Example 216, 3-[2-(5-Chloro-2-oxo-1,2-dihydroindol-3-ylidenemethyl)-4-methyl-1H-pyrrol-3-yl]-propionic acid]
18 | 680 nM | COc1cccc(-c2ccc3c(c2)NC(=O)/C3=C\c2[nH]c3c(c2CCC(=O)O)CCCC3)c1 [Example 204, 3-{2-[6-(3-Methoxyphenyl)-2-oxo-1,2-dihydro-indol-3-ylidenemethyl]-4,5,6,7-tetrahydro-1H-indol-3-yl}-propionic acid]
19 | 4 nM | O=C(O)CCc1c(/C=C2\C(=O)Nc3ccc(Br)cc32)[nH]c2c1CCCC2 [Example 192, 3-[2-(5-Bromo-2-oxo-1,2-dihydroindol-3-ylidenemethyl)-4,5,6,7-tetrahydro-1H-indol-3yl]-propionic acid]
20 | 50 nM | O=C(O)CCc1c(/C=C2\C(=O)Nc3ccc(Cl)cc32)[nH]c2c1CCCC2 [Example 191, 3-[2-(5-Chloro-2-oxo-1,2-dihydroindol-3-ylidenemethyl)-4,5,6,7-tetrahydro-1H-indol-3-yl]-propionic acid]
21 | 33700 nM | COc1ccc2c(c1)NC(=O)/C2=C\c1[nH]c2c(c1CCC(=O)O)CCCC2 [Example 196, 3-[2-(6-Methoxy-2-oxo-1,2-dihydroindol-3-ylidenemethyl)-4,5,6,7-tetrahydro-1H-indol-3-yl]-propionic acid]
22 | > 100000 nM | O=C1Nc2ccc(C(=O)O)cc2/C1=C/c1ccc2[nH]ccc2c1 [Example 177, 3-(1H-Indol-5-ylmethylene)-2-oxo-2,3-dihydro-1H-indole-5-carboxylic acid]
23 | 5400 nM | Cc1[nH]c2ccccc2c1/C=C1\C(=O)Nc2ccc(C(=O)O)cc21 [Example 182, 3-(2-Methyl-1H-indol-3-ylmethylene)-2-oxo-2,3-dihydro-1H-indole-5-carboxylic acid]
24 | > 100000 nM | CN(C)C(=O)CCc1c(/C=C2\C(=O)Nc3ccccc32)[nH]c2c1CCCC2 [Example 197, N,N-Dimethyl-3-[2-(2-oxo-1,2-dihydroindol-3-ylidenemethyl)-4,5,6,7-tetrahydro-1H-indol-3-yl]-propionamide]
25 | 1110 nM | Cc1c(/C=C2\C(=O)Nc3ccc(N)cc32)[nH]c2ccccc12 [Example 180, 5-Amino-3-(3-methyl-1H-indol-2-ylmethylene)-1,3-dihydroindol-2-one]
26 | 89400 nM | NS(=O)(=O)c1ccc2c(c1)/C(=C/c1c[nH]c3ccccc13)C(=O)N2 [Example 172, 3-(1H-Indol-3-ylmethylene)-2-oxo-2,3-dihydro-1H-indole-5-sulfonic acid amide]
27 | 9580 nM | O=C(CCc1c(/C=C2\C(=O)Nc3ccccc32)[nH]c2c1CCCC2)NCCN1CCOCC1 [Example 202, N-(2-Morpholin-4-ylethyl)-3-[2-(2-oxo-1,2-dihydroindol-3-ylidenemethyl)-4,5,6,7-tetrahydro-1H-indol-3-yl]-propionamide]
28 | 81400 nM | Cc1ccc2c(c1)/C(=C/c1[nH]c3c(c1CCC(=O)O)CCCC3)C(=O)N2 [Example 194, 3-[2-(5-Methyl-2-oxo-1,2-dihydroindol-3-ylidenemethyl)-4,5,6,7-tetrahydro-1H-indol-3-yl]-propionic acid]
29 | 68600 nM | O=C1Nc2ccc(N=Cc3cc4ccccc4[nH]3)cc2C1=Cc1cc2ccccc2[nH]1 [Example 171, 3-(1H-indol-2-ylmethylene)-5-[(1H-indol-2-ylmethylene)-amino]-1,3-dihydroindol-2-one]
30 | 69100 nM | CNS(=O)(=O)c1ccc2c(c1)/C(=C/c1cc3ccccc3[nH]1)C(=O)N2 [Example 173, 3-(1H-Indol-2-ylmethylene)-2-oxo-2,3-dihydro-1H-indole-5-sulfonic acid methylamide]
31 | 2080 nM | O=C(O)CCc1c(/C=C2\C(=O)Nc3ccccc32)[nH]c2c1CCCC2 [Example 190, 3-[2-(2-Oxo-1,2-dihydro-indol-3-ylidenemethyl)-4,5,6,7-tetrahydro-1H-indol-3-yl]-propionic acid]
32 | > 100000 nM | COc1c(C(C)C)cc(/C=C2/C(=O)Nc3ccccc32)cc1C(C)C [Example 1, 3-(3,5-Diisopropyl-4-methoxybenzylidene)-1,3-dihydroindol-2-one]

Row | SMILES | IC50
33 | Cc1c[nH]c(/C=C2\C(=O)Nc3cccc(C)c32)c1CCC(=O)O [Example 218, 3-[2-(4-Methyl-2-oxo-1,2-dihydroindol-3-ylidenemethyl)-4-methyl-1H-pyrrol-3-yl]-propionic acid] | 2110 nM
34 | Cc1c[nH]c(C=C2C(=O)Nc3cc(Cl)ccc32)c1CCC(=O)O [Example 219, 3-[2-(6-Chloro-2-oxo-1,2-dihydroindol-3-ylidenemethyl)-4-methyl-1H-pyrrol-3-yl]-propionic acid] | 470 nM
35 | O=C(O)CCc1c(/C=C2\C(=O)Nc3cc(-c4ccccc4)ccc32)[nH]c2c1CCCC2 [Example 206, 3-[2-(2-oxo-6-phenyl-1,2-dihydroindol-3-ylidenemethyl)-4,5,6,7-tetrahydro-1H-indol-3-yl]-propionic acid] | 40 nM
36 | Cc1c[nH]c(/C=C2\C(=O)Nc3ccc(Br)cc32)c1CCC(=O)O [Example 220, 3-[2-(5-Bromo-2-oxo-1,2-dihydroindol-3-ylidenemethyl)-4-methyl-1H-pyrrol-3-yl]-propionic acid] | 620 nM
37 | COc1ccc(-c2ccc3c(c2)NC(=O)/C3=C\c2[nH]c3c(c2CCC(=O)O)CCCC3)cc1 [Example 205, 3-{2-[6-(4-Methoxyphenyl)-2-oxo-1,2-dihydro-indol-3-ylidenemethyl]-4,5,6,7-tetrahydro-1H-indol-3-yl}-propionic acid] | 5430 nM
38 | Cc1c[nH]c(/C=C2\C(=O)Nc3ccccc32)c1CCC(=O)O [Example 215, 3-[4-Methyl-2-(2-oxo-1,2-dihydroindol-3-ylidenemethyl)-1H-pyrrol-3-yl]-propionic acid] | 500 nM
